Measurements from patent US20240254115A1 (ACONDICIONAMIENTO TARRASENSE, priority 2021, published 2024).

Tests used:
human σ2/TMEM97 receptor = molecular target: T1, human σ2/TMEM97 receptor (Homo sapiens, UniProt Q5BJF2); assay: Binding assay to human σ2/TMEM97 receptor; details: transfected HEK-293 membranes, 10 nM [3H]-DTG, 25° C. 120 minutes; + may also stand for 1-50% inhibition at 1 or 10 μM; read-out: Binding σ-2 Ki
T1 construct: expressed in transfected cells; host or cells: HEK-293
In short: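 Membranes from transfected HEK-293 cells (15 µg) were incubated with 10 nM [3H]-DTG in 50 mM Tris-HCl pH 8.0 for 120 min at 25 °C, with 10 µM haloperidol defining non-specific binding. Filtration and scintillation counting followed. Compounds tested as % inhibition at 1 or 10 µM, or at five concentrations for Ki.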

human σ1 receptor = molecular target: T2, human σ1 receptor (Homo sapiens, UniProt Q99720); assay: Human σ1 receptor radioligand assay; details: transfected HEK-293 membranes, 5 nM [3H](+)-pentazocine, 37° C. 120 minutes; + may also stand for 1-50% inhibition at 1 or 10 μM; read-out: Binding σ-1 Ki
T2 construct: expressed in transfected cells; host or cells: HEK-293
T2 sequence (Q99720 whole entry): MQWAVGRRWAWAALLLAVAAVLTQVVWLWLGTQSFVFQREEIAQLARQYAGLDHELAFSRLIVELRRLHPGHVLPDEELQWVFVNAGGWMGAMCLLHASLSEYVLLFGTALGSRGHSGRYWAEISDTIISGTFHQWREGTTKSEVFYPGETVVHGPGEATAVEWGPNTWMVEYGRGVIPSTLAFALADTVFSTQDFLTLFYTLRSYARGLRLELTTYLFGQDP
In short: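 Ki was derived from five test concentrations, or % inhibition was measured at a single 1 or 10 μM dose, against 5 nM [3H](+)-pentazocine. Incubation was 120 min at 37° C in 50 mM Tris-HCl pH 8 with 7 μg HEK-293 membranes, and 10 μM haloperidol set non-specific binding. Bound radioactivity was counted after filtration.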

T1 sequence (Q5BJF2 whole entry): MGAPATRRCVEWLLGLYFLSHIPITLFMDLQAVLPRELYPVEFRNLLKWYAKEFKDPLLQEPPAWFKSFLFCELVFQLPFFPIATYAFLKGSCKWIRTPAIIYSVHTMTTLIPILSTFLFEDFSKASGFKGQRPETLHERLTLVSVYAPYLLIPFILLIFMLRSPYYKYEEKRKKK

| Ki (human σ2/TMEM97 receptor) [nM] | Ki (human σ1 receptor) [nM] | SMILES |
| --- | --- | --- |
| < 100 | 100 to 500 | CC(C)(C)CCN1CCC2(CC1)CCN(S(=O)(=O)c1ccc(N3CCOCC3=O)nc1)CC2 [Example 131, 4-(5-((9-(3,3-Dimethylbutyl)-3,9-diazaspiro[5.5]undecan-3-yl)sulfonyl)pyridin-2-yl)morpholin-3-one] |
| < 100 | 100 to 500 | CC(C)(C)CCN1CCC2(CC1)CCN(S(=O)(=O)c1ccc(N3CCCCC3=O)nc1)CC2 [Example 132, 1-(5-((9-(3,3-Dimethylbutyl)-3,9-diazaspiro[5.5]undecan-3-yl)sulfonyl)pyridin-2-yl)piperidin-2-one] |
| < 100 | 100 to 500 | CC(C)(C)CCN1CCC2(CC1)CCN(S(=O)(=O)c1ccc(N3CCCC3=O)nc1)CC2 [Example 133, 1-(5-((9-(3,3-Dimethylbutyl)-3,9-diazaspiro[5.5]undecan-3-yl)sulfonyl)pyridin-2-yl)pyrrolidin-2-one] |
| < 100 | 100 to 500 | CC(C)(C)CCN1CCC2(CC1)CCN(S(=O)(=O)c1ccc(N3CCOC3=O)nc1)CC2 [Example 134, 3-(5-((9-(3,3-Dimethylbutyl)-3,9-diazaspiro[5.5]undecan-3-yl)sulfonyl)pyridin-2-yl)oxazolidin-2-one] |
| < 100 | < 100 | O=C1OCCN1c1ccc(S(=O)(=O)N2CCC3(CCN(Cc4ccccc4)CC3)CC2)cn1 [Example 135, 3-(5-((9-Benzyl-3,9-diazaspiro[5.5]undecan-3-yl)sulfonyl)pyridin-2-yl)oxazolidin-2-one] |
| < 100 | < 100 | CC(C)(C)CCN1CCCC2(CCN(S(=O)(=O)c3ccc(N4CCCC4=O)nc3)CC2)C1 [Example 136, 1-(5-((2-(3,3-Dimethylbutyl)-2,9-diazaspiro[5.5]undecan-9-yl)sulfonyl)pyridin-2-yl)pyrrolidin-2-one] |
| < 100 | < 100 | CC(C)(C)CCN1CCCC2(CCN(S(=O)(=O)c3ccc(N4CCOC4=O)nc3)CC2)C1 [Example 137, 3-(5-((2-(3,3-Dimethylbutyl)-2,9-diazaspiro[5.5]undecan-9-yl)sulfonyl)pyridin-2-yl)oxazolidin-2-one] |
| < 100 | < 100 | CC(C)(C)CCN1CCC2(CC1)CCN(S(=O)(=O)c1ccc(N3CCOC3=O)nc1)C2 [Example 138, 3-(5-((8-(3,3-Dimethylbutyl)-2,8-diazaspiro[4.5]decan-2-yl)sulfonyl)pyridin-2-yl)oxazolidin-2-one] |
| < 100 | < 100 | CC(C)(C)CCN1CCC2(CC1)CCN(S(=O)(=O)c1ccc(N3CCCC3=O)nc1)C2 [Example 139, 1-(5-((8-(3,3-Dimethylbutyl)-2,8-diazaspiro[4.5]decan-2-yl)sulfonyl)pyridin-2-yl)pyrrolidin-2-one] |
| < 100 | 100 to 500 | CC(C)(C)CCN1CCC2(CC1)CCN(S(=O)(=O)c1cnc(N3CCOC3=O)c(F)c1)CC2 [Example 140, 3-(5-((9-(3,3-Dimethylbutyl)-3,9-diazaspiro[5.5]undecan-3-yl)sulfonyl)-3-fluoropyridin-2-yl)oxazolidin-2-one] |
| < 100 | 100 to 500 | CC(C)(C)CCN1CCC2(CC1)CCN(S(=O)(=O)c1cnc(N3CCCC3=O)c(F)c1)CC2 [Example 141, 1-(5-((9-(3,3-Dimethylbutyl)-3,9-diazaspiro[5.5]undecan-3-yl)sulfonyl)-3-fluoropyridin-2-yl)pyrrolidin-2-one] |
| < 100 | 100 to 500 | CN(Cc1ccccc1)C1CCN(S(=O)(=O)c2ccc(N3CCOC3=O)nc2)CC1 [Example 142, 3-(5-((4-(Benzyl(methyl)ami-no)piperidin-1-yl)sulfonyl)pyridin-2-yl)oxazolidin-2-one] |
| < 100 | > 1000 | CC(C)(C)CN1CCC2(CC1)CCN(S(=O)(=O)c1ccc(N3CCOC3=O)nc1)CC2 [Example 143, 3-(5-((9-Neopentyl-3,9-diazaspiro[5.5]undecan-3-yl)sulfonyl)pyridin-2-yl)oxazolidin-2-one] |
| 100 to 500 | 100 to 500 | O=C1OCCN1c1ccc(S(=O)(=O)N2CCC3(CCN(Cc4ccccc4)CC3)C2)cn1 [Example 144, 3-(5-((8-Benzyl-2,8-diazaspiro[4.5]decan-2-yl)sulfonyl)pyridin-2-yl)oxazolidin-2-one] |
| 100 to 500 | 500 to 1000 | O=C1OCCN1c1ccc(S(=O)(=O)N2CCC3(CCCN(Cc4ccccc4F)C3)CC2)cn1 [Example 145, 3-(5-((2-(2-Fluorobenzyl)-2,9-diazaspiro[5.5]undecan-9-yl)sulfonyl)pyridin-2-yl)oxazolidin-2-one] |
| 500 to 1000 | 500 to 1000 | O=C1OCCN1c1ccc(S(=O)(=O)N2CCC3(CCCN(Cc4cc(F)ccc4F)C3)CC2)cn1 [Example 146, 3-(5-((2-(2,5-Difluorobenzyl)-2,9-diazaspiro[5.5]undecan-9-yl)sulfonyl)pyridin-2-yl)oxazolidin-2-one] |
| 100 to 500 | 500 to 1000 | O=C1OCCN1c1ccc(S(=O)(=O)N2CCC3(CCCN(Cc4ccccc4)C3)CC2)cn1 [Example 147, 3-(5-((2-Benzyl-2,9-diazaspiro[5.5]undecan-9-yl)sulfonyl)pyridin-2-yl)oxazolidin-2-one] |

Continued, molecule first:

| SMILES | Ki (human σ2/TMEM97 receptor) [nM] | Ki (human σ1 receptor) [nM] |
| --- | --- | --- |
| CC(C)(C)CCN1CCC2(CCCN(S(=O)(=O)c3ccc(N4CCS(=O)(=O)CC4)nc3)C2)CC1 [Example 118, 4-(5-((9-(3,3-Dimethylbutyl)-2,9-diazaspiro[5.5]undecan-2-yl)sulfonyl)pyridin-2-yl)thiomorpholine 1,1-dioxide] | < 100 | 100 to 500 |
| CN(Cc1ccc(F)cc1)[C@H]1CC[C@H](NS(=O)(=O)c2ccc(N3CCOCC3)cn2)CC1 [Example 119, N-((1r,4r)-4-((4-Fluoro-benzyl)(methyl)amino)cyclo-hexyl)-5-morpholinopyridine-2-sulfonamide] | < 100 | > 1000 |
| CC(C)(C)CCN1CCC2(CCCN(S(=O)(=O)c3ccc(N4CCOCC4=O)nc3)C2)CC1 [Example 120, 4-(5-((9-(3,3-Dimethylbutyl)-2,9-diazaspiro[5.5]undecan-2-yl)sulfonyl)pyridin-2-yl)morpholin-3-one] | < 100 | 100 to 500 |
| CC(C)(C)CCN1CCC2(CCCN(S(=O)(=O)c3ccc(N4CCCC4=O)nc3)C2)CC1 [Example 121, 1-(5-((9-(3,3-Dimethylbutyl)-2,9-diazaspiro[5.5]undecan-2-yl)sulfonyl)pyridin-2-yl)pyrrolidin-2-one] | < 100 | < 100 |
| CC(C)(C)CCN1CCC2(CCCN(S(=O)(=O)c3ccc(N4CCCCC4=O)nc3)C2)CC1 [Example 122, 1-(5-((9-(3,3-Dimethylbutyl)-2,9-diazaspiro[5.5]undecan-2-yl)sulfonyl)pyridin-2-yl)piperidin-2-one] | < 100 | 100 to 500 |
| CC(C)(C)CCN1CCC2(CCCN(S(=O)(=O)c3ccc(N4CCOC4=O)nc3)C2)CC1 [Example 123, 3-(5-((9-(3,3-Dimethylbutyl)-2,9-diazaspiro[5.5]undecan-2-yl)sulfonyl)pyridin-2-yl)oxazolidin-2-one] | < 100 | 100 to 500 |
| CN(CC(C)(C)C)C1CCN(S(=O)(=O)c2ccc(N3CCOC3=O)nc2)CC1 [Example 124, 3-(5-((4-(Methyl(neopentyl)amino)pi-peridin-1-yl)sulfonyl)pyridin-2-yl)oxazolidin-2-one] | > 1000 | 100 to 500 |
| N#Cc1ccc(CN2CCC3(CCCN(S(=O)(=O)c4ccc(N5CCOC5=O)nc4)C3)CC2)c(F)c1 [Example 125, 3-Fluoro-4-((2-((6-(2-oxooxazolidin-3-yl)pyridin-3-yl)sulfonyl)-2,9-diazaspiro[5.5]undecan-9-yl)methyl)benzonitrile] | < 100 | < 100 |
| O=C1CCCN1c1ccc(S(=O)(=O)N2CCCC3(CCN(CC4CCOCC4)CC3)C2)cn1 [Example 126, 1-(5-((9-((Tetrahydro-2H-pyran-4-yl)methyl)-2,9-diazaspiro[5.5]undecan-2-yl)sulfonyl)pyridin-2-yl)pyrrolidin-2-one] | < 100 | < 100 |
| O=C1OCCN1c1ccc(S(=O)(=O)N2CCCC3(CCN(CC4CCOCC4)CC3)C2)nc1 [Example 127, 3-(6-((9-((Tetrahydro-2H-pyran-4-yl)methyl)-2,9-diazaspiro[5.5]undecan-2-yl)sulfonyl)pyridin-3-yl)oxazolidin-2-one] | < 100 | < 100 |
| O=C1OCCN1c1ccc(S(=O)(=O)N2CCC3(CCN(CC4CCOCC4)CC3)CC2)cn1 [Example 128, 3-(5-((9-((Tetrahydro-2H-pyran-4-yl)methyl)-3,9-diazaspiro[5.5]undecan-3-yl)sulfonyl)pyridin-2-yl)oxazolidin-2-one] | < 100 | 500 to 1000 |
| CN(CC1CCOCC1)C1CCN(S(=O)(=O)c2ccc(N3CCOC3=O)nc2)CC1 [Example 129, 3-(5-((4-(Methyl((tetrahydro-2H-pyran-4-yl)methyl)amino)piperidin-1-yl)sulfonyl)pyridin-2-yl)oxazolidin-2-one] | 100 to 500 | 100 to 500 |
| O=S(=O)(c1ccc(N2CCC(F)(F)CC2)nc1)N1CCCC2(CCN(Cc3ccccc3)CC2)C1 [Example 130, 9-Benzyl-2-((6-(4,4-difluoropiperidin-1-yl)pyridin-3-yl)sulfonyl)-2,9-diazaspiro[5.5]undecane] | < 100 | < 100 |
